In experiment [1] the target is T1, Alpha trans-inducing protein (Human alphaherpesvirus 1) (UniProt A0A5J6DW59). In words: Selectivity interaction (Reporter gene assay) EUB0001172a UL48. Also noted: recommended concentration 1 uM. (Reporter assays use an easily measured gene product as a stand-in for the process of interest.)
For experiment [2], the target named is T2, Retinoic acid receptor RXR-alpha (Homo sapiens) (UniProt P19793).
T2 sequence (whole entry): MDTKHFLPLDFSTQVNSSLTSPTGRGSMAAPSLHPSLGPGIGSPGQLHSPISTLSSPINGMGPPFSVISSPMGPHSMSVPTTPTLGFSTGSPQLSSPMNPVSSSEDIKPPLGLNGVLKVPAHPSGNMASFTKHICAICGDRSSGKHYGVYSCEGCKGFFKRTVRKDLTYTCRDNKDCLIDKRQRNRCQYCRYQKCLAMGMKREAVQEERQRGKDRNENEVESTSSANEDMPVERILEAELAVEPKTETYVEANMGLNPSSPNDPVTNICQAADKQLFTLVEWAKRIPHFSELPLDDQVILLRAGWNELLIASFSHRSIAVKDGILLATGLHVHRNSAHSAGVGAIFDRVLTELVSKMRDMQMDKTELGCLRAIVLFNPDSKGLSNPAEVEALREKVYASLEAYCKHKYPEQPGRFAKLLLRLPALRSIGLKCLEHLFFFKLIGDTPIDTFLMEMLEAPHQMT
In words: Selectivity interaction (Reporter gene assay) EUB0001170a RXRA. On the set-up: recommended concentration 1 uM. The settings on record: reference bexarotene 1 uM, Selectivity number of off-targets 0.0, Selectivity number of targets 1.0, Source Knowledge inhouse.

Experiment [3] concerns the target T3, Nuclear receptor subfamily 2 group C member 1 (Homo sapiens) (UniProt P13056).
T3 sequence (whole entry): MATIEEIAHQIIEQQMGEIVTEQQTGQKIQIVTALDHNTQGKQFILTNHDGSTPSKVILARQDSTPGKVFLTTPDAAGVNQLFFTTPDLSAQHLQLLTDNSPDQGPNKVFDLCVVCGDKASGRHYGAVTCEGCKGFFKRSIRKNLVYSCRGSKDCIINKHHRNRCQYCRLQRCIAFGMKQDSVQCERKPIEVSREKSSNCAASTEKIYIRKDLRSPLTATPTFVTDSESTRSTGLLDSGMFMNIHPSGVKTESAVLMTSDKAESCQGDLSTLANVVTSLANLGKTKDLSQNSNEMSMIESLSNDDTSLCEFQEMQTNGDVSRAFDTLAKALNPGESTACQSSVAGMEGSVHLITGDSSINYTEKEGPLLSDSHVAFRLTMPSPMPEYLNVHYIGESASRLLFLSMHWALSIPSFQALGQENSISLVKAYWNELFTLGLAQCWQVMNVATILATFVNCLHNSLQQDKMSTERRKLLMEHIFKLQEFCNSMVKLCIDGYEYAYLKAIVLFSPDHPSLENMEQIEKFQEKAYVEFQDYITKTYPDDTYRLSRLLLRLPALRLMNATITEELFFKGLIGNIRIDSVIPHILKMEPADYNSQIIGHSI
In words: Selectivity interaction (Reporter gene assay) EUB0001170a NR2C1. Also noted: recommended concentration 1 uM.

Experiment [4] addresses Nuclear receptor subfamily 4immunitygroup A member 1 (Homo sapiens) (UniProt P22736). In words: Selectivity interaction (Reporter gene assay) EUB0001170a NR4A1. On the set-up: recommended concentration 1 uM.
The target of experiment [5] is T4, Hepatocyte nuclear factor 4-alpha (Homo sapiens) (UniProt P41235).
T4 sequence (whole entry): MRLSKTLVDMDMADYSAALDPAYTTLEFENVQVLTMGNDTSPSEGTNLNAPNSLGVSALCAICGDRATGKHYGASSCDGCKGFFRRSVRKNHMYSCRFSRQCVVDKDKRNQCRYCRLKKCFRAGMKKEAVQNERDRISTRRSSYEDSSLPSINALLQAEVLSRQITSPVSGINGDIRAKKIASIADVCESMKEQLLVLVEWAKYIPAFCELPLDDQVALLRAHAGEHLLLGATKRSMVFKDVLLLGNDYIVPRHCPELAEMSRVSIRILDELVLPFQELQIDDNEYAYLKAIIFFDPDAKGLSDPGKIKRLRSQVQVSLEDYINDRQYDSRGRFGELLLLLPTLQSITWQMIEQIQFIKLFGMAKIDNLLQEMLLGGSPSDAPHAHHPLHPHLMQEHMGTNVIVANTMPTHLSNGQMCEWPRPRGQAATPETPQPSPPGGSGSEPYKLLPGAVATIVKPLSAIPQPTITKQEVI
In words: Selectivity interaction (Reporter gene assay) EUB0001170a HNF4A. On the set-up: recommended concentration 1 uM.

Experiment [6] deals with T1, Alpha trans-inducing protein (Human alphaherpesvirus 1). In words: Selectivity interaction (Reporter gene assay) EUB0001170a UL48. On the set-up: recommended concentration 1 uM.
In experiment [7] the target is Steroidogenic factor 1 (Homo sapiens) (UniProt Q13285). In words: Selectivity interaction (Reporter gene assay) EUB0001170a NR5A1. On the set-up: recommended concentration 1 uM.
Sequence of Steroidogenic factor 1 (Homo sapiens) (Q13285 whole entry): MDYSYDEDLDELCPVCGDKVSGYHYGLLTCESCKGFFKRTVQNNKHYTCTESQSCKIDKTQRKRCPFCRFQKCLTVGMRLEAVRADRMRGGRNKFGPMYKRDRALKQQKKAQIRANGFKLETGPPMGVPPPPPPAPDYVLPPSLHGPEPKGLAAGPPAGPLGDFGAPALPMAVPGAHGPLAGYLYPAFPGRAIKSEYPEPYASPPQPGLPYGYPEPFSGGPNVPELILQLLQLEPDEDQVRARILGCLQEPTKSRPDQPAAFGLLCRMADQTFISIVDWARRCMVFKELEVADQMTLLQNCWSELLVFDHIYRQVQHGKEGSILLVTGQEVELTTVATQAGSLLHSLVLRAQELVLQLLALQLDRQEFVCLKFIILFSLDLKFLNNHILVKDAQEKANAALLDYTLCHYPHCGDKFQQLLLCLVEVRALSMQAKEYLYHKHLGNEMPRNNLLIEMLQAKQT
The target of experiment [8] is Nuclear receptor subfamily 2 group E member 1 (Homo sapiens) (UniProt Q9Y466). In words: Selectivity interaction (Reporter gene assay) EUB0001170a NR2E1. Also noted: recommended concentration 1 uM.
Sequence of Nuclear receptor subfamily 2 group E member 1 (Homo sapiens) (Q9Y466 whole entry): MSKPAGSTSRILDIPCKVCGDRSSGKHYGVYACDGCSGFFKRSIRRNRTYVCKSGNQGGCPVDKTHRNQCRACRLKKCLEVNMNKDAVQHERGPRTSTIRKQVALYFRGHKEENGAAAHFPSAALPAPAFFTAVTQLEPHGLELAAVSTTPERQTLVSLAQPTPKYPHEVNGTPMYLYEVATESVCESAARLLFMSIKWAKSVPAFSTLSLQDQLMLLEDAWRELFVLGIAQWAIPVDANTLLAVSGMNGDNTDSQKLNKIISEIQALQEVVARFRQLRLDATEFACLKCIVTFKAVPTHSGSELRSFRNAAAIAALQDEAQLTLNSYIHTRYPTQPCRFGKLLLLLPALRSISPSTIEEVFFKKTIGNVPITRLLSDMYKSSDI
Experiment [9] has as its target T2, Retinoic acid receptor RXR-alpha (Homo sapiens). In words: Selectivity interaction (Reporter gene assay) EUB0001167a RXRA. Also noted: recommended concentration 1 uM. Particulars: reference bexarotene 1 uM, Selectivity number of off-targets 0.0, Selectivity number of targets 1.0, Source Knowledge inhouse.
Experiment [10] addresses Nuclear receptor subfamily 2 group E member 1 (Homo sapiens) (UniProt Q9Y466). In words: Selectivity interaction (Reporter gene assay) EUB0001167a NR2E1. On the set-up: recommended concentration 1 uM.
For experiment [11], the target named is Nuclear receptor subfamily 4immunitygroup A member 1 (Homo sapiens) (UniProt P22736). In words: Selectivity interaction (Reporter gene assay) EUB0001167a NR4A1. On the set-up: recommended concentration 1 uM.
Sequence of Nuclear receptor subfamily 4immunitygroup A member 1 (Homo sapiens) (P22736 whole entry): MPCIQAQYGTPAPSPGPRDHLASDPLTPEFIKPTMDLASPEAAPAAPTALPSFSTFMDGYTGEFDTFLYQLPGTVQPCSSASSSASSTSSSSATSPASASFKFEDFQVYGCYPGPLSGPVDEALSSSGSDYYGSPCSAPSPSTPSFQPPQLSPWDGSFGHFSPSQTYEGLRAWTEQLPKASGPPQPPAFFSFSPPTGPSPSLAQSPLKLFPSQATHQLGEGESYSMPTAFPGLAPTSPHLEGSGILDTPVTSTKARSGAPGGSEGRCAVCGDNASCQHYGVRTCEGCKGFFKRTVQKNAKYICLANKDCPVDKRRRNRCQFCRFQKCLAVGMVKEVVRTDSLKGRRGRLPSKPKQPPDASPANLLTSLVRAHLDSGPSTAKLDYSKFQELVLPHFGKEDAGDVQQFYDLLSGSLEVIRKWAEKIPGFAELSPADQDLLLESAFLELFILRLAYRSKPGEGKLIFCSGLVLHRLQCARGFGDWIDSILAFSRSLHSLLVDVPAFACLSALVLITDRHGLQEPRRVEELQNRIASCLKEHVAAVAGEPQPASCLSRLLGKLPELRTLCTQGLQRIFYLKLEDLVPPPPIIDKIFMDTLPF
For experiment [12], the target named is Steroidogenic factor 1 (Homo sapiens) (UniProt Q13285). The experiment in a line: Selectivity interaction (Reporter gene assay) EUB0001167a NR5A1. On the set-up: recommended concentration 1 uM.
The target of experiment [13] is T4, Hepatocyte nuclear factor 4-alpha (Homo sapiens). In words: Selectivity interaction (Reporter gene assay) EUB0001167a HNF4A. On the set-up: recommended concentration 1 uM.
Experiment [14] concerns the target T1, Alpha trans-inducing protein (Human alphaherpesvirus 1). In words: Selectivity interaction (Reporter gene assay) EUB0001167a UL48. Also noted: recommended concentration 1 uM.
Experiment [15] deals with T3, Nuclear receptor subfamily 2 group C member 1 (Homo sapiens). In words: Selectivity interaction (Reporter gene assay) EUB0001167a NR2C1. On the set-up: recommended concentration 1 uM.
The target is the same in experiment [16]. In words: Selectivity interaction (Reporter gene assay) EUB0001163a NR2C1. Also noted: recommended concentration 10 uM.
The target of experiment [17] is Nuclear receptor subfamily 2 group E member 1 (Homo sapiens) (UniProt Q9Y466). In words: Selectivity interaction (Reporter gene assay) EUB0001163a NR2E1. Also noted: recommended concentration 10 uM.
For experiment [18], the target named is T4, Hepatocyte nuclear factor 4-alpha (Homo sapiens). In words: Selectivity interaction (Reporter gene assay) EUB0001163a HNF4A. Also noted: recommended concentration 10 uM.
Experiment [19] has as its target Steroidogenic factor 1 (Homo sapiens) (UniProt Q13285). In words: Selectivity interaction (Reporter gene assay) EUB0001163a NR5A1. Also noted: recommended concentration 10 uM.
The target in experiment [20] is T1, Alpha trans-inducing protein (Human alphaherpesvirus 1). The experiment in a line: Selectivity interaction (Reporter gene assay) EUB0001163a UL48. On the set-up: recommended concentration 10 uM.
Experiment [21] addresses T2, Retinoic acid receptor RXR-alpha (Homo sapiens). The experiment in a line: Selectivity interaction (Reporter gene assay) EUB0001163a RXRA. Also noted: recommended concentration 10 uM. Particulars: reference bexarotene 1 uM, Selectivity number of off-targets 0.0, Selectivity number of targets 1.0, Source Knowledge inhouse.
The target in experiment [22] is Nuclear receptor subfamily 4immunitygroup A member 1 (Homo sapiens) (UniProt P22736). The experiment in a line: Selectivity interaction (Reporter gene assay) EUB0001163a NR4A1. On the set-up: recommended concentration 10 uM.
Experiment [23] has as its target T5, Oxysterols receptor LXR-beta (Homo sapiens) (UniProt P55055).
T5 sequence (whole entry): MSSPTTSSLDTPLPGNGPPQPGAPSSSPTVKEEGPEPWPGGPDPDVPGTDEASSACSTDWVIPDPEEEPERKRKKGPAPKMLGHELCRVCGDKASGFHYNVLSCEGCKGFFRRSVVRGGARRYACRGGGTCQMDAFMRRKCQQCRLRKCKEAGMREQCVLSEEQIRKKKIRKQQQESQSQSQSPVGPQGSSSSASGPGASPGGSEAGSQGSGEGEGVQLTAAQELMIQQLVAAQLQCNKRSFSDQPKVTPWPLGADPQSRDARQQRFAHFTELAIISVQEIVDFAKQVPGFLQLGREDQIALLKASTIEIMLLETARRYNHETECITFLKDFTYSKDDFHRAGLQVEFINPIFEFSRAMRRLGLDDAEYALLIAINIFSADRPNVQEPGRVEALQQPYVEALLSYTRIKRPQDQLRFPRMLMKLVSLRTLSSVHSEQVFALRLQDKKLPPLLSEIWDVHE
The experiment in a line: Selectivity interaction (Reporter gene assay) EUB0001168a NR1H2. The settings on record: screened at recom. conc., Selectivity number of off-targets 1.0, Selectivity number of targets 19.0, Source Knowledge inhouse. On the set-up: recommended concentration 1 uM.

Experiment [24] deals with T2, Retinoic acid receptor RXR-alpha (Homo sapiens). In words: Selectivity interaction (Reporter gene assay) EUB0001168a RXRA. Particulars: reference bexarotene 1 uM, Selectivity number of off-targets 0.0, Selectivity number of targets 1.0, Source Knowledge inhouse. Also noted: recommended concentration 1 uM.
For experiment [25], the target named is Nuclear receptor subfamily 2 group E member 1 (Homo sapiens) (UniProt Q9Y466). In words: Selectivity interaction (Reporter gene assay) EUB0001168a NR2E1. On the set-up: recommended concentration 1 uM.
In experiment [26] the target is T4, Hepatocyte nuclear factor 4-alpha (Homo sapiens). In words: Selectivity interaction (Reporter gene assay) EUB0001168a HNF4A. On the set-up: recommended concentration 1 uM.
The target in experiment [27] is Nuclear receptor subfamily 4immunitygroup A member 1 (Homo sapiens) (UniProt P22736). The experiment in a line: Selectivity interaction (Reporter gene assay) EUB0001168a NR4A1. On the set-up: recommended concentration 1 uM.
Experiment [28] addresses T3, Nuclear receptor subfamily 2 group C member 1 (Homo sapiens). The experiment in a line: Selectivity interaction (Reporter gene assay) EUB0001168a NR2C1. On the set-up: recommended concentration 1 uM.
Experiment [29] addresses T1, Alpha trans-inducing protein (Human alphaherpesvirus 1). In words: Selectivity interaction (Reporter gene assay) EUB0001168a UL48. On the set-up: recommended concentration 1 uM.
Experiment [30] has as its target Steroidogenic factor 1 (Homo sapiens) (UniProt Q13285). The experiment in a line: Selectivity interaction (Reporter gene assay) EUB0001168a NR5A1. On the set-up: recommended concentration 1 uM.

T1 sequence (A0A5J6DW59 as listed by the source): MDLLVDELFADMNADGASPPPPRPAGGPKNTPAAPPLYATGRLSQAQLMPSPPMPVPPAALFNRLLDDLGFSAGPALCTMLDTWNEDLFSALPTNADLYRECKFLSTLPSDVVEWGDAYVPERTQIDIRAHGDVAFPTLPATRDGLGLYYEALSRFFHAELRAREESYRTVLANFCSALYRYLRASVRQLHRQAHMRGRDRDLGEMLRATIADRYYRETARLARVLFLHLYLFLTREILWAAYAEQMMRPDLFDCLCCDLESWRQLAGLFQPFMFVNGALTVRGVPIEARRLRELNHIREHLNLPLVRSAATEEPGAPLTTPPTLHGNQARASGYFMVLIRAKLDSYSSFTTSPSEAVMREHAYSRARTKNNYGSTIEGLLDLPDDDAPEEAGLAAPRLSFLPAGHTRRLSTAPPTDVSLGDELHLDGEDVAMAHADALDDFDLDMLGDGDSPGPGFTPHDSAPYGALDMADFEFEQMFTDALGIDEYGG

With `CC(C)(C[C@H]1CN(S(=O)(=O)c2cccc(C(F)(F)F)c2)c2cc(-c3cc(F)cc(OC(F)F)c3)ccc2O1)C(=O)O`, in experiment [1], the P-value amounted to 4.9e-12.
Compound `CC(C)C(=O)N1CCC(c2cn(C)c3ncc(NC(=O)c4cccc(C#N)c4)c(C(F)(F)F)c23)CC1` came in with a Relative activation in experiment [2] of 0.336%. In addition, the figures for the Remaining activity in experiment [3] and in [8] were 0.916 and 0.839, respectively. Also, the Fold activation worked out at 1.14 in experiment [4], 1.08 in experiment [5] and 1.12 in [7]. In addition, in experiment [6], the P-value turned out to be 0.00111.
For the compound `CC(=O)Oc1ccc2c(c1)[C@@]1(C)CCC[C@](C)(C(=O)OC(=O)[C@@]3(C)CCC[C@]4(C)c5cc(OC(C)=O)ccc5CC[C@@H]34)[C@@H]1CC2`, the Relative activation in experiment [9] worked out at 0.795%. Besides, the Fold activation in experiment [10] is 1.06; in experiment [11], 1.11; in experiment [15], 1.13. Also, the Remaining activity in [12] stood at 0.86; in experiment [13], 0.928. Further, the P-value in experiment [14] is 0.00117.
Turning to `CCOC(=O)Nc1ccc2c(c1)N(C(=O)CN(CC)CC)c1ccccc1CC2`, the figures for the Fold activation in experiment [16], in experiment [18] and in experiment [19] were 1.37, 1.08 and 1.16, respectively. Moreover, the figures for the Remaining activity in experiment [17] and in experiment [22] were 1.38 and 1.21, respectively. Moreover, in [20], the P-value came to 0.011. Moreover, the Relative activation in experiment [21] came out at 0.623%.
For `O=C(O)c1ccnc(N2CC(O)(c3ccc(OCc4c(-c5c(Cl)cccc5Cl)noc4C4CC4)cc3Cl)C2)c1`, the Fold activation amounted to 5.01 in experiment [23]; 1.12 in experiment [25]; 1.13 in [26]; 1.01 in [27]; 1.18 in experiment [28]; 1.07 in experiment [30]. Moreover, the Relative activation in experiment [24] is 0.698%. Further, the P-value in experiment [29] was 0.0011.

The values are drawn from ChEMBL document CHEMBL5715260, “Selectivity Literature for EUbOPEN Chemogenomic Library” (2024).
